Assay results as given in patent publication US20230003717A1, “USE OF SYNAPTOTAGMIN-7 IN THE DIAGNOSIS AND TREATMENT OF BIPOLAR DISORDER” (TSINGHUA UNIVERSITY, priority 2020, published 2023).

Assays:
Assay type in all cases: in vivo
WT mice [1] = experiment: learned helplessness (LH) test, WT mice; settings: 30 mg/kg intraperitoneal, night phase and day phase, vs untreated control
Method: (§1) Considering that the FST/TS tests can not represent all the characterizations of human disease, a learned helplessness (LH) test and a sucrose preference test (SPT) were conducted. LH is associated with depression. In the LH test, the escape failure number of mice is an indicator for determining the depression of animal due to external pressure. A higher escape failure number indicates a more significant depression. SPT is associated with anhedonia. The proportion of sucrose preference of the mice can serve as an indicator for determining the anhedonia severity of the mice. A higher proportion of sweet preference indicates an enhancement in hedonic feeling.
(§2) Then, the LH/SPT/LDB behavioral paradigms were adopted for detecting the effect of high-dose olanzapine treatment (1.0 mg/kg) on abnormal behaviors of the Syt7 KO mice.
(§3) The effect of clinical BD treatment lithium on behavioral abnormalities in Syt7 KO mice was then tested.

Syt7 KO mice [2] = experiment: sucrose preference test (SPT), Syt7 KO mice; settings: 30 mg/kg intraperitoneal, night phase and day phase, vs untreated control
Method: as §1, §2, §3

Syt7 KO mice [3] = experiment: light-dark box (LDB) test, Syt7 KO mice; settings: 30 mg/kg intraperitoneal, night phase and day phase
Method: (§4) Since BD patients often had clinical symptoms of anxiety, a light-dark box (LDB) test was conducted to observe anxiety-like behaviors in the Syt7 KO mice.
as §2, §3

WT mice [4] = experiment: sucrose preference test (SPT), WT mice; settings: 30 mg/kg intraperitoneal, night phase and day phase, vs untreated control
Method: as §1, §2, §3

WT mice [5] = experiment: forced swim test (FST), WT mice; settings: 30 mg/kg intraperitoneal, night phase and day phase
Method: (§5) The 11 genes in the DG region of the mice were knocked down using shRNA virus. The mice were subject to a forced swim test (FST), and the immobility time of the mice was analyzed. The immobility time is an indicator that reflects the feeling of despair of the mice, and a longer immobility time indicates a more serious feeling of despair. The result is shown in panel C in FIG. 1.
as §3

Syt7 KO mice [6] = experiment: learned helplessness (LH) test, Syt7 KO mice; settings: 30 mg/kg intraperitoneal, night phase and day phase, vs untreated control
Method: as §1, §2, §3

WT mice [7] = experiment: light-dark box (LDB) test, WT mice; settings: 30 mg/kg intraperitoneal
Method: as §4, §2, §3

Syt7 KO mice [8] = experiment: forced swim test (FST), Syt7 KO mice; settings: 30 mg/kg intraperitoneal, night phase and day phase
Method: as §5
The behaviors of Syt7 KO mice (i.e., Syt7-knockout mice) were then examined in the FST test.
Syt7 KO mice were first treated with the atypical antipsychotic olanzapine (OLZ) and observed for the dose dependence (administered with doses of 0.2 mg/kg, 0.5 mg/kg and 1.0 mg/kg) (using ANOVA statistical method). […] Without being limited by theory, this may be associated with an antidepressant effect of olanzapine in treating BD patients.
as §3

O=C([O-])[O-].[Li+].[Li+] [Li2CO3]
escape numbers in LH test (WT mice [1]): increased escape numbers
sucrose preference (SPT) (Syt7 KO mice [2]): decreased sucrose preference
time spent in the light compartment in the LDB test (Syt7 KO mice [3]): reducing the time spent in the light compartment
sucrose preference (SPT) (WT mice [4]): decreased sucrose preference
immobility time in FST (WT mice [5]): no effect
escape numbers in LH test (Syt7 KO mice [6]): increased escape numbers
time spent in the light compartment in the LDB test (WT mice [7]): no effect on WT
immobility time in FST (Syt7 KO mice [8]): no effect
